# Source: patent publication US20250243488A1, “METHODS OF MODULATING PROGRANULIN EXPRESSION USING ANTISENSE OLIGONUCLEOTIDES TARGETING REGULATORY RNAS” (Camp4 Therapeutics Corporation, priority 2022, published 2025)
# Oligonucleotides are written 5' to 3', each unit as a sugar letter and its base; * is a phosphorothioate linkage, no mark a phosphodiester; rarer units and linkages stand in square brackets, end groups in braces. Plain capitals give the bases only. e = 2'-O-(2-methoxyethyl) (MOE); l = locked nucleic acid (LNA); [5mC] = 5-methylcytosine; d = 2'-deoxy (DNA)
# Tested on: GRN mRNA
# Test: GRN mRNA qPCR in SK-N-AS cells transfected with ASOs
# Type: cell-based, human
# Conditions: for hGRN mRNA FC / 120 nM FC (GRN mRNA): 120 nM
# Method: The best ASOs based on increased GRN mRNA fold-change were selected for further characterization in dose titration studies. Briefly, human neuroblastoma SK-N-AS cells were transfected with 20 to 160 nM of ASOs CO-3423, CO-3431, CO-3463, and CO-3503. A steric non-targeting control ASO (sNTC) was used as a control. Cells were collected for mRNA analysis after 48 hours and GRN mRNA quantified by qPCR. Housekeeping genes for normalization were GAPDH and PPIA, and mRNA fold change (FC) was normalized to sNTC.
# 36 additional ASOs were designed with different modifications and base walking around selected ASOs. The effect of increasing doses of these ASOs was assessed in the human neuroblastoma cell line SK-N-AS following transfection. Relative GRN mRNA levels in SK-N-AS cells after treatment was assessed 48-hours post-transfection, and data from exemplary ASOs is shown in FIGS. 5A and 5B.
# Additional chemical modifications, including LNA, modifications were made to CO-3423. SK-N-AS cells were transfected with increasing concentrations of the LNA/PS modified ASOs and GRN mRNA quantified by qPCR. ASOs including different LNA modifications of CO-3423 had similar efficacy (i.e, similar increased GRN mRNA expression). GRN mRNA was normalized to the average fold-change of cells treated with two steric non-targeting control ASOs (CO-3772 and CO-1589 (sNTC1)).
# The effect of ASO length on GRN gene expression modulation was also investigated. SK-N-AS cells were transfected with increasing concentrations of the longer ASOs and GRN mRNA quantified by qPCR. Increasing the length of CO-3423 increased the potency of the ASO, as shown in Table 4. mRNA was normalized to the average fold change of cells treated with two steric non-targeting control ASOs (CO-3772 and CO-1589 (sNTC1)).
# To determine whether variations in the PO/PS internucleotide bond linkages impacted the ability of CO-3423 and CO-3431 to modulate gene expression, several modified ASOs based on these parent ASOs were prepared. SK-N-AS cells were transfected with increasing concentrations of the mixed PO/PS bond ASOs described in Tables 5 and 6, and GRN mRNA quantified by qPCR.
# GRN mRNA fold-change after treatment with mixed PO/PS bond versions of CO-3423 is shown in Table 5. mRNA was normalized to the average fold change of cells treated with steric nontargeting controls (CO-3772, CO-1589 (sNTC1), and CO-1929 (sNTC3)).
# GRN mRNA fold-change after treatment with mixed PO/PS bond versions of CO-3431 is shown in Table 6. mRNA was normalized as described above.
# To further assess the effect of additional modifications on the ability of CO-3423 parent ASO to modulate GRN gene expression, additional LNA tiling and PO bond modifications were incorporated to CO-3423. SK-N-AS cells were transfected with increasing concentrations of the modified ASOs and GRN mRNA quantified by qPCR. CO-3423 was used for comparison. GRN mRNA was normalized to the average fold-change of cells treated with a steric non-targeting control ASO, CO-1589 (sNTC1).
# To further assess the effect of modifications on the ability of CO-3463 parent ASO to modulate GRN gene expression, ASOs based on this ASOS incorporating additional LNA modifications were prepared and compared to […]. SK-N-AS cells were transfected with increasing concentrations of the ASOs and GRN mRNA quantified by qPCR. GRN mRNA was normalized to the average fold-change of cells treated with a steric non-targeting control ASO, CO-1589 (sNTC1).
# 68 additional ASOs were designed to target intergenic enhancers (eRNA). 48 hours post-transfection, the cells were collected for GRN mRNA analysis using qPCR. CO-1589, a steric nontargeting control ASO, was used as a control. GRN mRNA was normalized to cells treated with CO-1589.
# The best hits from these ASOs were tested in a dose escalation study. Cells were incubated for 48 hours. Subsequently, the cells were collected for mRNA quantification via RT-qPCR. […]
# [1] = Table 9, SK-N-AS, 48 hours post-transfection, normalized to CO-1589
# [2] = Table 11, SK-N-AS, 48 hours, normalized to CO-1589
# [3] = Table 12, SK-N-AS, normalized to CO-1589
# [4] = Table 13, SK-N-AS, normalized to CO-1589
# [5] = Table 5, SK-N-AS, normalized to CO-3772, CO-1589 and CO-1929
# [6] = Table 7, SK-N-AS, normalized to CO-1589 (sNTC1)
# [7] = Table 10, SK-N-AS, 48 hours, normalized to CO-1589
# [8] = Table 3, SK-N-AS, normalized to CO-3772 and CO-1589 (sNTC1)
substance,measurement,setting,value
CO-8877: hGRN regRNA-targeting ASO with additional chemical modifications (antisense eT*eA*lG*e[5mC]*eA*dA*dA*d[5mC]*dT*d[5mC]*d[5mC]*d[5mC]*d[5mC]*d[5mC]*dA*eG*eG*l[5mC]*eG*e[5mC]),GRN mRNA expression in SK-N-AS cells,"3.75 to 90 nM, 48 hours post-transfection, normalized to sNTC (FIGS. 26A, 26B)",dose-dependent increase
CO-4597: ASO designed to target intergenic enhancers (eRNA) (antisense eA*eG*eG*e[5mC]*eG*eT*e[5mC]*e[5mC]*eT*eT*eT*e[5mC]*e[5mC]*eA*eT*eT*e[5mC]*e[5mC]*e[5mC]*eT),hGRN mRNA FC,[1],0.9 FC
CO-4643: ASO designed to target intergenic enhancers (eRNA) (antisense e[5mC]*eG*eG*e[5mC]*eA*eT*eT*e[5mC]*e[5mC]*e[5mC]*eT*eG*eA*e[5mC]*e[5mC]*eT*eA*eT*e[5mC]*e[5mC]),hGRN mRNA FC,[1],0.9 FC
CO-6431: ASO designed to target an intragenic enhancer RNA (eRNA) (eA*e[5mC]*eG*eG*eA*e[5mC]*e[5mC]*eT*e[5mC]*e[5mC]*eT*e[5mC]*eA*e[5mC]*eT*eA*eA*eG*e[5mC]*eT),hGRN mRNA FC,[2],0.8 FC
CO-6514: ASO based on parent ASO CO-3462 (antisense eT*eA*eGeGeAeGeAeAeTe[5mC]eG*e[5mC]*eT*eT*eT*eG*eG*eG*eA*eG),30 nM FC (GRN mRNA),[3],1.4 FC
same,60 nM FC (GRN mRNA),[3],1.9 FC
same,120 nM FC (GRN mRNA),[3],1.8 FC
CO-6414: ASO based on parent ASOs CO-4363 and CO-4364 (antisense eG*eG*eA*l[5mC]*eT*lT*eG*lG*eG*lA*eG*lT*eG*lG*eT*lG*eA*l[5mC]*eT*eG*eA),30 nM FC (GRN mRNA),[4],1.6 FC
same,60 nM FC (GRN mRNA),[4],1.4 FC
same,120 nM FC (GRN mRNA),[4],1.3 FC
CO-4617: ASO designed to target intergenic enhancers (eRNA) (antisense eG*eG*eA*eG*eA*eT*eA*eG*eG*eG*eT*e[5mC]*eA*e[5mC]*eG*eT*eA*e[5mC]*eT*eT),hGRN mRNA FC,[1],1.2 FC
CO-4453: mixed PO/PS bond version of CO-3423 (antisense eG*eG*eAe[5mC]eT*eT*eG*eG*eG*eA*eG*eT*eG*eG*eT*eGeAe[5mC]*eT*eG),30 nM FC (GRN mRNA),[5],1.4 FC
same,60 nM FC (GRN mRNA),[5],1.9 FC
same,120 nM FC (GRN mRNA),[5],1.9 FC
CO-4633: ASO designed to target intergenic enhancers (eRNA) (antisense eT*e[5mC]*e[5mC]*eT*e[5mC]*eT*eG*e[5mC]*e[5mC]*eT*eG*eA*e[5mC]*eT*eA*eA*eT*eT*e[5mC]*eG),hGRN mRNA FC,[1],1.3 FC
"CO-5266: CO-3423 with additional LNA tiling and PO bond modifications (antisense GGACTTGGGAGTGGTGACTG; 2'-MOE, mixed PS/PO, 5-methylcytosine; listed as RNA; modified_base 1..7: mod_base = OTHER; note = Phosphorothioate linkage; modified_base 17..20: mod_base = OTHER; modified_base 1..20: mod_base = OTHER; note = 2'-O-(2-methoxyethyl) ribonucleotide; modified_base 4)",7.5 nM FC (GRN mRNA),[6],1.0 FC
same,13 nM FC (GRN mRNA),"Table 7, SK-N-AS, 13 nM, normalized to CO-1589 (sNTC1)",1.0 FC
same,30 nM FC (GRN mRNA),[6],1.2 FC
same,60 nM FC (GRN mRNA),[6],1.7 FC
same,120 nM FC (GRN mRNA),[6],2.0 FC
same,150 nM FC (GRN mRNA),"Table 7, SK-N-AS, 150 nM, normalized to CO-1589 (sNTC1)",2.2 FC
CO-4610: ASO designed to target intergenic enhancers (eRNA) (antisense eG*eG*eA*e[5mC]*eA*eT*eG*e[5mC]*eT*eG*eG*eA*eA*eA*eG*eT*e[5mC]*eT*eT*eA),hGRN mRNA FC,[1],1.2 FC
CO-6450: ASO designed to target an intragenic enhancer RNA (eRNA) (e[5mC]*eA*eG*eT*eG*eG*e[5mC]*e[5mC]*eT*eT*eG*eT*e[5mC]*e[5mC]*eA*eG*e[5mC]*eT*e[5mC]*eG),hGRN mRNA FC,[2],0.9 FC
CO-6408: ASO based on parent ASO CO-3462 (antisense eT*eA*eG*eGeAeGeA*eA*eT*e[5mC]*eG*e[5mC]*eT*eTeTeGeG*eG*eA*eG),30 nM FC (GRN mRNA),[3],1.0 FC
same,60 nM FC (GRN mRNA),[3],1.1 FC
same,120 nM FC (GRN mRNA),[3],1.5 FC
CO-4585: ASO designed to target intergenic enhancers (eRNA) (antisense eT*e[5mC]*eG*eA*eA*eT*e[5mC]*eT*e[5mC]*e[5mC]*eG*eG*e[5mC]*eT*e[5mC]*eT*eT*e[5mC]*eA*e[5mC]),hGRN mRNA FC,[1],1.4 FC
CO-4622: ASO designed to target intergenic enhancers (eRNA) (antisense eA*e[5mC]*eA*eG*eT*eG*eG*e[5mC]*e[5mC]*eG*e[5mC]*eA*eT*eA*eA*eA*eT*eT*eT*e[5mC]),hit identification (GRN mRNA dose escalation),"SK-N-AS, 3.75 nM to 120 nM, 48 hours",initial hits
same,hGRN mRNA FC,[1],1.0 FC
same,3.75 nM FC (GRN mRNA),"Table 10, SK-N-AS, 3.75 nM, 48 hours, normalized to CO-1589",1.0 FC
same,7.5 nM FC (GRN mRNA),[7],1.0 FC
same,15 nM FC (GRN mRNA),"Table 10, SK-N-AS, 15 nM, 48 hours, normalized to CO-1589",1.0 FC
same,30 nM FC (GRN mRNA),[7],1.0 FC
same,60 nM FC (GRN mRNA),[7],1.1 FC
same,120 nM FC (GRN mRNA),[7],1.1 FC
CO-6437: ASO designed to target an intragenic enhancer RNA (eRNA) (eG*eA*e[5mC]*eA*eA*eA*eG*eA*e[5mC]*e[5mC]*e[5mC]*eA*e[5mC]*e[5mC]*e[5mC]*e[5mC]*eT*eG*eT*e[5mC]),hGRN mRNA FC,[2],1.1 FC
CO-4595: ASO designed to target intergenic enhancers (eRNA) (antisense eA*eG*e[5mC]*e[5mC]*e[5mC]*eG*eA*e[5mC]*e[5mC]*eT*eT*eG*eA*e[5mC]*eT*eG*eA*eT*eA*eG),hGRN mRNA FC,[1],1.0 FC
CO-4354: LNA/PS modified ASO based on CO-3423 (antisense eG*eG*eA*l[5mC]*eT*lT*eG*lG*eG*lA*eG*lT*eG*lG*eT*lG*eA*l[5mC]*eT*eG),30 nM FC (GRN mRNA),[8],1.6 FC
same,60 nM FC (GRN mRNA),[8],1.9 FC
same,120 nM FC (GRN mRNA),[8],1.9 FC
